# Laboratory results taken from ChEMBL document CHEMBL1781885, “Cytotoxic norsesquiterpene peroxides from the endophytic fungus Talaromyces flavus isolated from the mangrove plant Sonneratia apetala” (J Nat Prod, 2011).
# The source made the active and inactive calls. No cut-off for these calls is given here.
# Legend:
# [1] = system: MCF7; assay: Cytotoxicity against human MCF7 cells after 6 days by MTT method; type: functional, cell-based; details: MCF7, 144 h
# [2] = system: MDA-MB-435; assay: Cytotoxicity against human MDA-MB-435 after 6 days by MTT method; type: functional, cell-based; details: MDA-MB-435, 144 h
# [3] = system: HepG2; assay: Cytotoxicity against human HepG2 after 6 days by MTT method; type: functional, cell-based; details: HepG2, 144 h
# [4] = system: PC-3; assay: Cytotoxicity against human PC3 cells after 6 days by MTT method; type: functional, cell-based; details: PC-3, 144 h
# [5] = system: Artemia salina; assay: Toxicity in Artemia salina; type: organism-based; details: in vivo
# [6] = system: HeLa; assay: Cytotoxicity against human HeLa cells after 6 days by MTT method; type: functional, cell-based; details: 144 h
# [7] = system: Staphylococcus aureus; assay: Antimicrobial activity against Staphylococcus aureus ATCC 27154 at 50 ug/ml; type: functional, organism-based
# [8] = system: Escherichia coli; assay: Antimicrobial activity against Escherichia coli ATCC 25922 at 50 ug/ml; type: functional, organism-based
# [9] = system: Sarcina ventriculi; assay: Antimicrobial activity against Sarcina ventriculi ATCC 29068 at 50 ug/ml; type: functional
# [10] = system: Pseudomonas aeruginosa; assay: Antimicrobial activity against Pseudomonas aeruginosa ATCC 25668 at 50 ug/ml; type: functional, organism-based
# [11] = system: Candida albicans; assay: Antimicrobial activity against Candida albicans ATCC 10231 at 50 ug/ml; type: functional, organism-based
# [12] = system: Aspergillus niger; assay: Antimicrobial activity against Aspergillus niger ATCC 13496 at 50 ug/ml; type: functional, organism-based
Compound,IC50 [1],IC50 [2],IC50 [3],IC50 [4],LD50 [5],IC50 [6],Activity [7],Activity [8],Activity [9],Activity [10],Activity [11],Activity [12]
COc1cccc2c1C(=O)c1c(O)c3c(c(O)c1C2=O)C[C@@](O)(C(=O)CO)C[C@@H]3O[C@H]1C[C@H](N)[C@@H](O)[C@H](C)O1 [EPIRUBICIN],0.56 mg/L,0.33 mg/L,0.56 mg/L,0.16 mg/L,–,–,–,–,–,–,–,–
CC1(C)CCC(=O)[C@@]2(C)OO[C@@H]3C[C@@]12CC[C@H]3O [MERULIN A],4.17 mg/L,1.9 mg/L,6.79 mg/L,1.82 mg/L,< 10 ppm,7.97 mg/L,inactive,inactive,inactive,inactive,inactive,inactive
CC(=O)O[C@H]1CC[C@]23C[C@@H]1OO[C@@]2(C)C(=O)CCC3(C)C [TALAPEROXIDE B],1.33 mg/L,2.78 mg/L,1.29 mg/L,0.89 mg/L,< 10 ppm,1.73 mg/L,inactive,inactive,inactive,inactive,inactive,inactive
CC(=O)O[C@H]1CC[C@]23C[C@@H]1OO[C@]2(C)C(=O)CCC3(C)C [TALAPEROXIDE A],19.8 mg/L,11.8 mg/L,12.9 mg/L,5.7 mg/L,< 10 ppm,13.7 mg/L,inactive,inactive,inactive,inactive,inactive,inactive
CC1(C)CCC(=O)[C@]2(C)OO[C@H]3C[C@]12CCC3=O [TALAPEROXIDE D],1.92 mg/L,0.91 mg/L,0.9 mg/L,0.7 mg/L,< 10 ppm,1.31 mg/L,inactive,inactive,inactive,inactive,inactive,inactive
CC1(C)CCC(=O)[C@@]2(C)OO[C@H]3C[C@]12CCC3=O [TALAPEROXIDE C],6.63 mg/L,2.64 mg/L,15.1 mg/L,4.34 mg/L,< 10 ppm,12.7 mg/L,inactive,inactive,inactive,inactive,inactive,inactive
